Patent US11840686B2, “Modulation of prekallikrein (PKK) expression” (Ionis Pharmaceuticals, Inc., priority 2013, dated 2023)
Strand notation (5' to 3'): a small letter for the sugar, then the base; units joined by * are phosphorothioate-linked, units joined directly phosphodiester-linked; [ ] holds rarer units or linkages, { } end groups; capitals alone tell only the bases. e = 2'-O-(2-methoxyethyl) (MOE); k = constrained ethyl (cEt); [5mC] = 5-methylcytosine; d = 2'-deoxy (DNA)

Test system: human PKK mRNA
Experiment: Antisense inhibition of human PKK mRNA in HepaRG cells, 1,000 nM, MOE/deoxy/cEt oligonucleotides (Example 3)
Type: cell-based
How it was run: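 Readout is percent PKK mRNA reduction against untreated controls, by real-time PCR (RTS3454) adjusted for total RNA via RIBOGREEN. Oligonucleotides, phosphorothioate gapmers of 16 nucleosides with cEt, MOE and deoxy sugars, were delivered at 1,000 nM by electroporation to 20,000 HepaRG cells/well for roughly 24 h.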

[1] = HepaRG cells, electroporation with 1,000 nM antisense oligonucleotide, approx. 24 hours, PKK mRNA by RT-PCR (RTS3454), relative to untreated control cells, Table 25 experiment
[2] = Table 28, HepaRG cells, 1,000 nM antisense oligonucleotide, human PKK mRNA
[3] = HepaRG cells, electroporation with 1,000 nM antisense oligonucleotide, approximately 24 hours, primer probe set RTS3454, relative to untreated control cells, experiment of Table 24
[4] = Table 20, HepaRG cells, electroporation with 1,000 nM antisense oligonucleotide, approximately 24 hours, PKK mRNA by RT-PCR (RTS3454), relative to untreated control cells
[5] = Table 22 experiment, HepaRG cells, electroporation with 1,000 nM antisense oligonucleotide, approx. 24 hours, PKK mRNA by RT-PCR (RTS3454), relative to untreated control cells
[6] = HepaRG cells, 1,000 nM antisense oligonucleotide, Table 29
[7] = PKK mRNA, HepaRG cells, 1,000 nM antisense oligonucleotide, Table 31
[8] = Table 21 experiment, HepaRG cells, electroporation with 1,000 nM antisense oligonucleotide, approx. 24 hours, PKK mRNA by RT-PCR (RTS3454), relative to untreated control cells
[9] = HepaRG cells, electroporation with 1,000 nM antisense oligonucleotide, approx. 24 hours, PKK mRNA by RT-PCR (RTS3454), relative to untreated control cells, Table 26 experiment
[10] = Table 30, human PKK mRNA, HepaRG cells, 1,000 nM antisense oligonucleotide
[11] = HepaRG cells, electroporation with 1,000 nM antisense oligonucleotide, approximately 24 hours, primer probe set RTS3454, relative to untreated control cells, experiment of Table 23
[12] = Table 19, HepaRG cells, electroporation with 1,000 nM antisense oligonucleotide, approximately 24 hours, PKK mRNA by RT-PCR (RTS3454), relative to untreated control cells

## 548168 (eT*eT*kG*d[5mC]*dG*dA*d[5mC]*d[5mC]*dT*d[5mC]*dG*d[5mC]*dA*kT*kT*eG; antisense) [compound 548168]
[1]
  % inhibition: 61%

## 548516 (antisense e[5mC]*eT*kT*dG*d[5mC]*d[5mC]*dT*dA*dT*dT*d[5mC]*dA*d[5mC]*k[5mC]*k[5mC]*e[5mC]) [compound 548516]
[2]
  % inhibition: 49%

## 548186 (e[5mC]*eA*kA*d[5mC]*dA*d[5mC]*dA*d[5mC]*dA*dG*dT*d[5mC]*dA*kT*kG*eG; antisense) [compound 548186]
[1]
  % inhibition: 0%

## 548023 (eG*e[5mC]*kT*dT*d[5mC]*dA*d[5mC]*d[5mC]*dT*dG*d[5mC]*dA*dG*kG*k[5mC]*eT; antisense) [compound 548023]
[3]
  % inhibition: 58%

## 547852 (antisense eA*eT*kA*dA*dA*dT*dG*dT*d[5mC]*dT*d[5mC]*dG*dA*kT*kG*eG) [compound 547852]
[4]
  % inhibition: 67%
[5]
  % inhibition: 66%

## 548575 (eT*eG*kT*d[5mC]*d[5mC]*dT*dT*dT*dA*dA*dA*dG*dT*kA*kT*e[5mC]; antisense) [compound 548575]
[6]
  % inhibition: 18%

## 548464 (eG*eT*k[5mC]*d[5mC]*dT*dA*dT*dA*dA*d[5mC]*dT*dA*dT*kA*kT*e[5mC]; antisense) [compound 548464]
[2]
  % inhibition: 0%

## 548676 (antisense eG*eT*kG*dA*dA*dT*d[5mC]*dA*dG*dA*dG*d[5mC]*dA*kG*kT*eG) [compound 548676]
[7]
  % inhibition: 63%

## 547880 (eT*eT*k[5mC]*dA*dA*d[5mC]*dA*d[5mC]*dT*dG*d[5mC]*dT*dA*kA*k[5mC]*e[5mC]; antisense) [compound 547880]
[4]
  % inhibition: 69%
[5]
  % inhibition: 59%

## 547813 (eG*eG*kT*dG*dG*dA*dA*dT*dG*dT*dG*d[5mC]*dA*k[5mC]*k[5mC]*eT; antisense) [compound 547813]
[8]
  % inhibition: 34%

## 548243 (eA*eT*kG*d[5mC]*dA*dT*dA*d[5mC]*dT*d[5mC]*dG*d[5mC]*d[5mC]*kT*kT*eT; antisense) [compound 548243]
[9]
  % inhibition: 0%

## 548446 (antisense eT*e[5mC]*k[5mC]*dT*dA*dT*dG*dT*d[5mC]*dA*d[5mC]*dT*dG*kT*kA*e[5mC]) [compound 548446]
[10]
  % inhibition: 16%

## 547854 (antisense eA*eT*k[5mC]*dA*dA*d[5mC]*dT*d[5mC]*d[5mC]*dT*dT*dT*dA*kT*kA*eA) [compound 547854]
[4]
  % inhibition: 10%
[5]
  % inhibition: 9%

## 548289 (e[5mC]*eA*kT*dG*dA*dT*dA*d[5mC]*d[5mC]*dA*d[5mC]*dA*d[5mC]*k[5mC]*kA*e[5mC]; antisense) [compound 548289]
[9]
  % inhibition: 28%

## 547993 (antisense eT*eA*kG*dA*dT*dA*dA*dT*d[5mC]*dT*dT*dA*dA*kG*kA*eA) [compound 547993]
[11]
  % inhibition: 26%

## 548412 (antisense eT*eA*kA*d[5mC]*dA*dG*dT*dA*dT*d[5mC]*dA*d[5mC]*dT*kG*kT*eA) [compound 548412]
[10]
  % inhibition: 17%

## 548672 (antisense e[5mC]*e[5mC]*k[5mC]*d[5mC]*d[5mC]*d[5mC]*dA*dG*dA*dA*dA*dT*d[5mC]*k[5mC]*k[5mC]*eA) [compound 548672]
[7]
  % inhibition: 40%

## 548008 (eT*e[5mC]*kT*d[5mC]*dA*dA*dA*dG*dA*dG*dT*dA*dA*k[5mC]*k[5mC]*eA; antisense) [compound 548008]
[3]
  % inhibition: 71%

## 548483 (e[5mC]*eT*kA*d[5mC]*dA*dG*dA*dT*d[5mC]*dA*dT*d[5mC]*d[5mC]*k[5mC]*kT*eA; antisense) [compound 548483]
[2]
  % inhibition: 5%

## 548599 (eT*eG*kG*dG*dT*dT*dG*dG*dA*dG*dG*dA*dG*kT*kG*eG; antisense) [compound 548599]
[6]
  % inhibition: 19%

## 548432 (antisense eA*e[5mC]*kT*dG*dT*dA*d[5mC]*d[5mC]*dT*dA*dT*dA*dA*k[5mC]*kT*e[5mC]) [compound 548432]
[10]
  % inhibition: 43%

## 548586 (eT*e[5mC]*k[5mC]*dA*dA*d[5mC]*dT*dA*d[5mC]*dA*dG*dG*dA*k[5mC]*kT*e[5mC]; antisense) [compound 548586]
[6]
  % inhibition: 39%

## 548649 (antisense eG*e[5mC]*k[5mC]*dT*d[5mC]*dT*d[5mC]*dA*dG*dA*d[5mC]*dG*dG*k[5mC]*kA*e[5mC]) [compound 548649]
[7]
  % inhibition: 0%

## 548218 (eT*e[5mC]*k[5mC]*dT*dG*dT*dG*d[5mC]*dA*dT*dA*dG*dA*k[5mC]*k[5mC]*e[5mC]; antisense) [compound 548218]
[1]
  % inhibition: 59%

## 547987 (antisense eA*e[5mC]*kA*dG*d[5mC]*dG*dA*dA*dT*d[5mC]*dA*dT*d[5mC]*kT*kT*eT) [compound 547987]
[11]
  % inhibition: 64%

## 548226 (eT*eA*kA*dG*dT*d[5mC]*dA*d[5mC]*d[5mC]*dA*dT*dA*dG*kA*k[5mC]*e[5mC]; antisense) [compound 548226]
[1]
  % inhibition: 39%

## 548305 (eG*eT*kT*d[5mC]*dT*dT*dG*d[5mC]*dT*dT*dA*dT*d[5mC]*k[5mC]*kT*e[5mC]; antisense) [compound 548305]
Table 27, HepaRG cells, 1,000 nM antisense oligonucleotide, human PKK mRNA
  % inhibition: 55%

## 548571 (eA*e[5mC]*kT*d[5mC]*dT*dG*dA*dG*dG*d[5mC]*d[5mC]*dT*dT*kA*kG*eG; antisense) [compound 548571]
[6]
  % inhibition: 59%

## 547968 (antisense eT*eT*kA*dG*dA*dA*dT*dG*dG*d[5mC]*dA*dG*dG*kG*kT*eT) [compound 547968]
[11]
  % inhibition: 37%

## 547992 (antisense e[5mC]*e[5mC]*kT*dT*dA*d[5mC]*dA*dG*dT*d[5mC]*dT*dT*d[5mC]*kT*kG*eG) [compound 547992]
[11]
  % inhibition: 17%

## 547899 (eG*eT*kA*d[5mC]*dT*dT*dT*dA*dA*dT*dA*dG*dG*k[5mC]*kA*eA; antisense) [compound 547899]
[4]
  % inhibition: 49%
[5]
  % inhibition: 68%

## 547958 (e[5mC]*eA*kG*dG*dT*dT*dA*dA*dA*dA*dG*dG*d[5mC]*kT*kA*eT; antisense) [compound 547958]
[11]
  % inhibition: 57%

## 547779 (antisense eA*eT*kT*dG*d[5mC]*dT*dT*d[5mC]*dT*dT*dG*dG*dA*kG*kG*eT) [compound 547779]
[8]
  % inhibition: 41%

## 548534 (antisense e[5mC]*eA*kG*dA*dT*d[5mC]*d[5mC]*d[5mC]*dA*dA*dT*dT*d[5mC]*kT*kT*e[5mC]) [compound 548534]
[2]
  % inhibition: 22%

## 547954 (eT*eA*kA*dA*dA*dG*dG*d[5mC]*dT*dA*dT*dA*dT*k[5mC]*k[5mC]*eA; antisense) [compound 547954]
[11]
  % inhibition: 36%

## 548503 (antisense e[5mC]*e[5mC]*kA*dT*d[5mC]*dT*dA*d[5mC]*dT*d[5mC]*d[5mC]*d[5mC]*d[5mC]*k[5mC]*kA*eT) [compound 548503]
[2]
  % inhibition: 9%

## 548657 (antisense eA*eG*k[5mC]*dA*dG*dG*dG*dT*dA*dT*d[5mC]*dT*dT*k[5mC]*kA*e[5mC]) [compound 548657]
[7]
  % inhibition: 26%

## 548011 (e[5mC]*e[5mC]*kA*dG*dT*dG*dT*dT*dA*d[5mC]*dA*d[5mC]*dA*kA*kT*e[5mC]; antisense) [compound 548011]
[3]
  % inhibition: 14%

## 548095 (antisense eT*eG*kT*dT*dT*dG*d[5mC]*dA*dA*dA*d[5mC]*dT*dA*kA*kG*eG) [compound 548095]
[12]
  % inhibition: 35%

## 548621 (antisense eG*eA*kA*d[5mC]*dA*d[5mC]*dA*dT*d[5mC]*dA*dG*dG*dG*kA*kT*eT) [compound 548621]
[7]
  % inhibition: 33%

## 548255 (antisense e[5mC]*e[5mC]*k[5mC]*d[5mC]*dA*dT*dG*d[5mC]*dA*dT*dA*d[5mC]*dT*k[5mC]*kG*e[5mC]) [compound 548255]
[9]
  % inhibition: 38%

## 548280 (antisense e[5mC]*eT*k[5mC]*d[5mC]*d[5mC]*dT*d[5mC]*dT*dG*dT*dA*dA*dT*kG*kA*eT) [compound 548280]
[9]
  % inhibition: 43%

## 548415 (antisense eA*eT*kA*dA*d[5mC]*dT*d[5mC]*dT*dA*dA*d[5mC]*dA*dG*kT*kA*eT) [compound 548415]
[10]
  % inhibition: 0%

## 548134 (e[5mC]*eA*kG*dA*dA*dT*dT*dT*dG*dA*d[5mC]*dT*dT*kG*kA*eA; antisense) [compound 548134]
[12]
  % inhibition: 17%

## 548282 (antisense eG*eT*kG*dG*dG*dT*dT*dT*dG*d[5mC]*dA*d[5mC]*dA*kT*kG*eG) [compound 548282]
[9]
  % inhibition: 73%

## 548433 (antisense eT*eA*kT*d[5mC]*dA*d[5mC]*dT*dG*dT*dA*d[5mC]*d[5mC]*dT*kA*kT*eA) [compound 548433]
[10]
  % inhibition: 33%

## 548301 (e[5mC]*e[5mC]*kT*dA*dG*dT*dA*d[5mC]*dA*dA*dA*dG*dT*kG*kG*e[5mC]; antisense) [compound 548301]
[9]
  % inhibition: 65%
